Results reported in patent US20070128217A1 (priority 2003, published 2007).

Assays:
[1] = system: antibodies in sera from SARS patients (sera 1a, 1b, 2, 6, 37, 62, London, SARS-yellow, SARS-green); format: binding, human; set-up: Binding of serum 6 to linear peptides of protein X1 of SARS-CoV Urbani / Binding of serum 37 to linear peptides of protein X1 of SARS-CoV Urbani / Binding of serum 6 to looped/cyclic peptide (PEPSCAN-ELISA) / Binding of serum 37 to looped/cyclic peptide (PEPSCAN-ELISA) / Binding of serum 37 to looped/cyclic peptides of protein X1 of SARS-CoV Urbani / Binding of serum 6 to linear peptides of protein X2 / Binding of serum 37 to linear peptides of protein X2 / Binding of serum 37 to looped/cyclic peptides of protein X2 of SARS-CoV Urbani / Binding of serum 6 to linear peptides of protein M of SARS-CoV Urbani / Binding of serum 37 to linear peptides of protein M of SARS-CoV Urbani / Binding of serum 6 to looped/cyclic peptides of protein M of SARS-CoV Urbani / Binding of serum 37 to looped/cyclic peptides of protein M of SARS-CoV Urbani / Binding of serum 6 to linear peptides of protein X3 of SARS-CoV Urbani / Binding of serum 37 to linear peptides of protein X3 of SARS-CoV Urbani / Binding of serum 37 to looped/cyclic peptides of protein X3 of SARS-CoV Urbani / Binding of serum 6 to linear peptides of protein X4 of SARS-CoV Urbani / Binding of serum 37 to linear peptides of protein X4 of SARS-CoV Urbani / Binding of serum 37 to looped/cyclic peptides of protein X4 of SARS-CoV Urbani / Binding of serum 6 to linear peptides of protein X5 of SARS-CoV Urbani / Binding of serum 37 to linear peptides of protein X5 of SARS-CoV Urbani / Binding of serum 37 to looped/cyclic peptides of protein X5 of SARS-CoV Urbani / Binding of serum 6 to linear peptides of protein N of SARS-CoV Urbani / Binding of serum 37 to linear peptides of protein N of SARS-CoV Urbani / Binding of serum 6 to linear peptide (PEPSCAN-ELISA) / Binding of serum 1a to looped/cyclic peptides of protein N of SARS-CoV Urbani / Binding of serum 1b to looped/cyclic peptides of protein N of SARS-CoV Urbani / Binding of serum 2 to looped/cyclic peptides of protein N of SARS-CoV Urbani / Binding of serum 6 to looped/cyclic peptides of protein N of SARS-CoV Urbani / Binding of serum 37 to looped/cyclic peptides of protein N of SARS-CoV Urbani / Binding of serum 62 to looped/cyclic peptides of protein N of SARS-CoV Urbani / Binding of serum London to looped/cyclic peptides of protein N of SARS-CoV Urbani / Binding of serum SARS-green to looped/cyclic peptides of protein N of SARS-CoV Urbani: unit not given here
[2] = system: control sera (pooled serum of ten healthy LUMC hospital workers; commercial negative donor pooled serum from the Dutch bloodbank); format: binding, human; set-up: Binding of Control serum LUMC to linear peptides / Binding of Control serum Blood-bank to linear peptides / Binding of Control serum LUMC to looped peptides / Binding of Control Serum Blood-Bank to Looped peptides / Binding of Control serum LUMC to linear peptides of the protein M of SARS-CoV Urbani / Binding of Control serum Blood-bank to linear peptides of the protein M of SARS-CoV Urbani / Binding of Control serum LUMC to looped peptides of the protein M of SARS-CoV Urbani / Binding of Control Serum Blood-Bank to Looped peptides of the protein M of SARS-CoV Urbani: unit not given here
[3] = system: rabbit serum obtained by immunizing a rabbit with the SARS-CoV strain Frankfurt 1; format: binding; set-up: Binding of a rabbit serum to linear peptides / Binding of a rabbit serum to looped peptides / Rabbit serum linear peptides / Rabbit serum looped peptides / Binding of a rabbit serum to linear peptides of protein N of SARS-CoV Urbani (Rabbit serum linear peptides) / Binding of a rabbit serum to looped/cyclic peptides of protein N of SARS-CoV Urbani (Rabbit serum looped peptides): unit not given here

VTLACFVLAAVYRIN
0.8: Binding of serum 1a to looped/cyclic peptides of protein M of SARS-CoV Urbani [1] | Binding of serum 6 to looped/cyclic peptides of protein M of SARS-CoV Urbani [1] | Binding of Control Serum Blood-Bank to Looped peptides of the protein M of SARS-CoV Urbani [2]
0.5: Binding of serum 2 to linear peptides of protein M of SARS-CoV Urbani [1] | Binding of serum 62 to linear peptides of protein M of SARS-CoV Urbani [1] | Binding of serum SARS-green to linear peptides of protein M of SARS-CoV Urbani [1] | Binding of Control serum Blood-bank to linear peptides of the protein M of SARS-CoV Urbani [2] | Binding of Control serum LUMC to linear peptides of the protein M of SARS-CoV Urbani [2]
0.1: Binding of serum SARS-yellow to linear peptides of protein M of SARS-CoV Urbani [1]
0.3: Binding of serum London to linear peptides of protein M of SARS-CoV Urbani [1] | Binding of serum London to looped/cyclic peptides of protein M of SARS-CoV Urbani [1] | Rabbit serum looped peptides [3]
0.6: Binding of serum 1b to linear peptides of protein M of SARS-CoV Urbani [1] | Binding of serum 1b to looped/cyclic peptides of protein M of SARS-CoV Urbani [1] | Binding of serum 2 to looped/cyclic peptides of protein M of SARS-CoV Urbani [1] | Binding of serum SARS-yellow to looped/cyclic peptides of protein M of SARS-CoV Urbani [1]
0.2: Binding of serum SARS-green to looped/cyclic peptides of protein M of SARS-CoV Urbani [1] | Rabbit serum linear peptides [3]
0.7: Binding of serum 1a to linear peptides of protein M of SARS-CoV Urbani [1] | Binding of serum 37 to looped/cyclic peptides of protein M of SARS-CoV Urbani [1] | Binding of serum 62 to looped/cyclic peptides of protein M of SARS-CoV Urbani [1] | Binding of Control serum LUMC to looped peptides of the protein M of SARS-CoV Urbani [2]
0.4: Binding of serum 6 to linear peptides of protein M of SARS-CoV Urbani [1] | Binding of serum 37 to linear peptides of protein M of SARS-CoV Urbani [1]

VVHGYFTEVYYQLES
0.2: Binding of serum London to linear peptides of protein X1 of SARS-CoV Urbani [1] | Binding of serum London to looped/cyclic peptides of protein X1 of SARS-CoV Urbani [1] | Binding of serum SARS-green to linear peptides of protein X1 of SARS-CoV Urbani [1] | Binding of serum SARS-green to looped/cyclic peptides of protein X1 of SARS-CoV Urbani [1]
0.3: Binding of serum 6 to linear peptides of protein X1 of SARS-CoV Urbani [1] | Binding of serum 6 to looped/cyclic peptides of protein X1 of SARS-CoV Urbani [1] | Binding of serum SARS-yellow to linear peptides of protein X1 of SARS-CoV Urbani [1]
0.8: Binding of serum 1a to linear peptides of protein X1 of SARS-CoV Urbani [1] | Binding of Control serum LUMC to linear peptides [2]
0.7: Binding of serum 1b to linear peptides of protein X1 of SARS-CoV Urbani [1] | Binding of a rabbit serum to looped peptides [3]
0.6: Binding of serum 1a to looped/cyclic peptides of protein X1 of SARS-CoV Urbani [1] | Binding of serum 37 to looped/cyclic peptides of protein X1 of SARS-CoV Urbani [1] | Binding of Control serum LUMC to looped peptides [2]
0.5: Binding of serum 37 to linear peptides of protein X1 of SARS-CoV Urbani [1] | Binding of serum 62 to looped/cyclic peptides of protein X1 of SARS-CoV Urbani [1]
0.4: Binding of serum 1b to looped/cyclic peptides of protein X1 of SARS-CoV Urbani [1] | Binding of serum 2 to linear peptides of protein X1 of SARS-CoV Urbani [1] | Binding of serum 2 to looped/cyclic peptides of protein X1 of SARS-CoV Urbani [1] | Binding of serum 62 to linear peptides of protein X1 of SARS-CoV Urbani [1] | Binding of serum SARS-yellow to looped/cyclic peptides of protein X1 of SARS-CoV Urbani [1] | Binding of Control Serum Blood-Bank to Looped peptides [2] | Binding of Control serum Blood-bank to linear peptides [2]
0.1: Binding of a rabbit serum to linear peptides [3]

VVILRIGTQVLKTMS
0.3: Binding of serum 2 to looped/cyclic peptides of protein X2 of SARS-CoV Urbani [1] | Binding of serum 6 to looped/cyclic peptides of protein X2 of SARS-CoV Urbani [1] | Binding of serum 37 to looped/cyclic peptides of protein X2 of SARS-CoV Urbani [1] | Binding of serum SARS-green to looped/cyclic peptides of protein X2 of SARS-CoV Urbani [1] | Binding of Control Serum Blood-Bank to Looped peptides [2] | Binding of Control serum LUMC to looped peptides [2]
0.6: Binding of serum 1a to linear peptides of protein X2 [1] | Binding of serum 37 to linear peptides of protein X2 [1] | Binding of serum 62 to linear peptides of protein X2 [1] | Binding of serum SARS-yellow to linear peptides of protein X2 [1]
0.4: Binding of serum 1a to looped/cyclic peptides of protein X2 of SARS-CoV Urbani [1] | Binding of serum 1b to looped/cyclic peptides of protein X2 of SARS-CoV Urbani [1] | Binding of serum 62 to looped/cyclic peptides of protein X2 of SARS-CoV Urbani [1] | Binding of serum London to linear peptides of protein X2 [1] | Binding of serum SARS-yellow to looped/cyclic peptides of protein X2 of SARS-CoV Urbani [1] | Binding of a rabbit serum to linear peptides [3] | Binding of a rabbit serum to looped peptides [3]
0.5: Binding of serum 1b to linear peptides of protein X2 [1] | Binding of serum 2 to linear peptides of protein X2 [1] | Binding of serum 6 to linear peptides of protein X2 [1] | Binding of serum SARS-green to linear peptides of protein X2 [1] | Binding of Control serum LUMC to linear peptides [2]
0.2: Binding of serum London to looped/cyclic peptides of protein X2 of SARS-CoV Urbani [1]
0.7: Binding of Control serum Blood-bank to linear peptides [2]

VVVHGYFTEVYYQLE
1.1: Binding of Control serum LUMC to linear peptides [2]
0.8: Binding of serum 1a to linear peptides of protein X1 of SARS-CoV Urbani [1]
0.4: Binding of serum 6 to linear peptides of protein X1 of SARS-CoV Urbani [1] | Binding of serum 62 to linear peptides of protein X1 of SARS-CoV Urbani [1] | Binding of serum SARS-yellow to looped/cyclic peptides of protein X1 of SARS-CoV Urbani [1] | Binding of Control Serum Blood-Bank to Looped peptides [2]
0.3: Binding of serum 6 to looped/cyclic peptides of protein X1 of SARS-CoV Urbani [1] | Binding of serum SARS-green to linear peptides of protein X1 of SARS-CoV Urbani [1] | Binding of serum SARS-green to looped/cyclic peptides of protein X1 of SARS-CoV Urbani [1] | Binding of serum SARS-yellow to linear peptides of protein X1 of SARS-CoV Urbani [1]
0.1: Binding of a rabbit serum to linear peptides [3]
0.5: Binding of serum 1b to looped/cyclic peptides of protein X1 of SARS-CoV Urbani [1] | Binding of serum 2 to looped/cyclic peptides of protein X1 of SARS-CoV Urbani [1] | Binding of serum 37 to looped/cyclic peptides of protein X1 of SARS-CoV Urbani [1] | Binding of serum 62 to looped/cyclic peptides of protein X1 of SARS-CoV Urbani [1] | Binding of Control serum Blood-bank to linear peptides [2]
0.6: Binding of serum 1a to looped/cyclic peptides of protein X1 of SARS-CoV Urbani [1] | Binding of serum 1b to linear peptides of protein X1 of SARS-CoV Urbani [1] | Binding of serum 2 to linear peptides of protein X1 of SARS-CoV Urbani [1] | Binding of serum 37 to linear peptides of protein X1 of SARS-CoV Urbani [1] | Binding of a rabbit serum to looped peptides [3]
0.7: Binding of Control serum LUMC to looped peptides [2]
0.2: Binding of serum London to linear peptides of protein X1 of SARS-CoV Urbani [1] | Binding of serum London to looped/cyclic peptides of protein X1 of SARS-CoV Urbani [1]

VYHITVSQIQLSLLK
0.5: Binding of serum 1a to looped/cyclic peptides of protein X2 of SARS-CoV Urbani [1] | Binding of serum 1b to linear peptides of protein X2 [1] | Binding of serum 2 to linear peptides of protein X2 [1] | Binding of serum 6 to linear peptides of protein X2 [1] | Binding of Control serum Blood-bank to linear peptides [2]
0.2: Binding of serum 1b to looped/cyclic peptides of protein X2 of SARS-CoV Urbani [1] | Binding of serum 2 to looped/cyclic peptides of protein X2 of SARS-CoV Urbani [1] | Binding of serum SARS-green to linear peptides of protein X2 [1]
0.6: Binding of serum 1a to linear peptides of protein X2 [1] | Binding of serum 6 to looped/cyclic peptides of protein X2 of SARS-CoV Urbani [1] | Binding of serum 62 to looped/cyclic peptides of protein X2 of SARS-CoV Urbani [1] | Binding of Control Serum Blood-Bank to Looped peptides [2]
0.4: Binding of serum 37 to looped/cyclic peptides of protein X2 of SARS-CoV Urbani [1] | Binding of serum 62 to linear peptides of protein X2 [1] | Binding of serum London to linear peptides of protein X2 [1] | Binding of Control serum LUMC to looped peptides [2] | Binding of a rabbit serum to looped peptides [3]
0.3: Binding of serum SARS-green to looped/cyclic peptides of protein X2 of SARS-CoV Urbani [1] | Binding of serum SARS-yellow to looped/cyclic peptides of protein X2 of SARS-CoV Urbani [1]
1.3: Binding of serum London to looped/cyclic peptides of protein X2 of SARS-CoV Urbani [1]
0.7: Binding of serum 37 to linear peptides of protein X2 [1] | Binding of serum SARS-yellow to linear peptides of protein X2 [1] | Binding of Control serum LUMC to linear peptides [2]
0.9: Binding of a rabbit serum to linear peptides [3]
